In brackets after ≈: the same amount, converted by molar mass.
Experiments:
[1] = system: analgesic effect of meperidine hydrochloride; test: Antagonism of meperidine analgesia, modified D'Amour-Smith test; settings: for maximum degree of antagonism: versus 60 mg/kg. meperidine
[2] = Clinical analgesia in human subjects; type: in vivo
Procedure: In human subjects, however, the compounds of Formulas I and II are valuable and effective agents for producing analgesia when administered in the general range of about 10 to 500 mg. per 70 kg. of subject weight, the dosage depending of course on the particular compound, the mode of administration, and the like. The following clinical results which were obtained in human subjects are illustrative. For oral administration the free base was used, and for parenteral (usually intramuscular) administration an aqueous solution of the lactate salt was used; the dosages are expressed in each instance in terms of milligrams of base per 70 kilograms of body weight of the human subject.

[3] = Solubility, pH of solution and precipitation on pH adjustment or dilution; type: physicochemical
Procedure: A. A mixture of 8.7 g. of racemic cis 1,2,3,4,5,6-hexahydro-6,11-dimethyl-8-hydroxy-2,6-methano-3-benzazocine (which is also known as racemic cis 2'-hydroxy-5,9-dimethyl-6,7-benzomorphan), 6.0 g of 1-bromo-3-methyl-2-butene, 5.0 g. of sodium bicarbonate, and 125 ml. of N,N-dimethylformamide was stirred and refluxed for approximately 41/2 hours. The reaction mixture was then filtered, and the solid on the filter was washed with ethanol. The filtrate and the wash liquor were combined, concentrated under reduced pressure, and then extracted with chloroform. The chloroform extract was concentrated under reduced pressure to yield a syrup which weighed 15.8 g. This syrup was dissolved in 120 ml. of diethyl ether and the resulting solution was filtered to remove approximately one-half gram of a brown amorphous solid. The filtrate was extracted with a mixture of 5 ml. of concentrated hydrochloric acid and 20 ml. of water. To the extract there was added 5 ml. of concentrated ammonium hydroxide solution and ice. A pale tan syrup separated from solution and after stirring, this syrup solidified. The resulting pale tan solid was collected and dried; it weighed 10.6 g. After two recrystallizations from a mixture of methyl alcohol and water, with charcoaling, this solid weighed 8.2 g. and melted at 145°-147° C. The product thus obtained was racemic cis 1,2,3,4,5,6-hexahydro-3-(3-methyl-2-butenyl)-6,11-dimethyl-8-hydroxy-2,6-methano-3-benzazocine (Formula II: Y = --CH2 --CH=C(CH3)2; R^3 = --H), having the molecular formula C19 H27 NO. This product was soluble in a mixture of 0.35 ml. of N/2 hydrochloric acid and 0.15 ml. of water to the extent of 10 percent, the pH of the 1 percent solution being 2.80; and when the pH of the 1 percent solution was gradually raised by addition of N/10 sodium hydroxide solution, a precipitate formed at pH 5.4. When the base was converted to the hydrochloride and was then regenerated from this salt it melted at 151°-153° C. The hydrochloride of this base melted at 245°-247° C. (dec.). and the cyclohexylsulfamate of this base melted at 163°-166° C. The base formed a grayish-yellowtannate.
The racemic trans product was converted to its hydrobromide, having the molecular formula C19 H27 NO·HBr, which was obtained as white needles which melted at 240°-241° C.
The dextro trans product was converted to its hydrochloride, having the molecular formula C19 H27 NO·HCl, which was obtained as white crystals which melted at 254°-255° C.
The levo trans product was converted to its hydrochloride, having the molecular formula C19 H27 NO·HCl, which was obtained as white crystals which melted at 254°-255° C. (dec.); this hydrochloride was soluble in water to the extent of 5 percent, the pH of a 1 percent aqueous solution being 5.7, a precipitate being formed when the 1 percent aqueous solution was adjusted to 7.0 by addition of N/10 sodium hydroxide solution.
A. A mixture of 9.25 g. of racemic cis 1,2,3,4,5,6-hexahydro-6-ethyl-11-methyl-8-hydroxy-2,6-methano-3-benzazocine, 6.0 g. of 1-bromo-3-methyl-2-butene, 125 ml. of N,N-dimethylformamide, and 5.0 g. of sodium bicarbonate was stirred and refluxed for approximately 41/2 hours. The reaction mixture was then filtered, and the solid collected on the filter was washed with ethanol. The filtrate and the wash liquor were combined and concentrated under reduced pressure. To the resulting residue there was added 50 ml. of diethyl ether, and the mixture was filtered. Approximately 0.6 g. of solid was collected on the filter, and 8.2 g. of brown solid separated from the filtrate and was collected by filtration. These two crops of solid (8.8 g.) were combined, 25 ml. of methanol was added, and the mixture was boiled. Only a small portion of the solid dissolved. This mixture was mixed with 25 ml. of water and chilled. The mixture was filtered to collect 8.3 g. of pale tan solid which melted at 156°-158° C. […]

[4] = Support of morphine addiction in stabilized morphine addicts
[5] = system: analgesic effect of morphine sulfate; test: Antagonism of morphine analgesia, modified D'Amour-Smith test; settings: Rattus norvegicus, sc, read-out: dosage of antagonist which reduced the analgesic effect of morphine by approximately 50 per cent
[6] = D'Amour-Smith test for analgesia in rats; type: in vivo
Procedure: In tests as in animals as analgesics and as antagonists of strong analgesics, the racemic, dextro, and levo forms of trans 1,2,3,4,5,6-hexahydro-3-(3-methyl-2-butenyl)-6-ethyl-11-methyl-8-hydroxy-2,6-methano-3-benzazocine described in Example 7D above gave results substantially differing from those of the corresponding cis forms and of the related compounds of this invention. Thus, in the analgesic antagonist test versus a 60 mg/kg. dose of meperidine, the maximum degree of antagonism which could be obtained for these three trans forms was: for the racemic trans form, 50 percent antagonism at 0.1 mg/kg.; for the dextro trans form, 30 percent antagonism at 1.25 mg./kg.; and for the levo trans form, 22 percent antagonism at 0.1 mg./kg.

CC(C)=CCN1CC[C@@]2(C)c3cc(O)ccc3C[C@@H]1[C@@H]2C (relative stereo) [4A (base), racemic cis 1,2,3,4,5,6-hexahydro-3-(3-methyl-2-butenyl)-6,11-dimethyl-8-hydroxy-2,6-methano-3-benzazocine]
ED50 ([1]; Rattus norvegicus, sc, read-out: dosage of antagonist which reduced the analgesic effect of meperidine by approximately 50 per cent): 3.9 mg/kg
analgesia in human subjects ([2]; orally, 50mg./70 kg. and 100 mg./70 kg.): effective and satisfactory analgesia
dose approximately equivalent to 10 mg. of morphine sulfate as an analgesic ([2]; parenterally in humans): ~20 mg
analgesia in human subjects ([2]; parenterally, 10 mg./70 kg. and 60 mg./70 kg.): effective and satisfactory analgesia
pH of the 1 percent solution ([3]; 1 percent solution in dilute hydrochloric acid): 2.80
pH at which a precipitate formed ([3]; 1 percent solution, addition of N/10 sodium hydroxide): 5.4
solubility ([3]; dilute hydrochloric acid, mixture of 0.35 ml. of N/2 hydrochloric acid and 0.15 ml. of water, read-out: solubility in dilute hydrochloric acid): 100 mg/mL (≈ 350 mM)
support of morphine addiction [4]: did not support morphine addiction
ED50 [5]: 9 mg/kg

CC[C@]12CCN(CC=C(C)C)[C@@H](Cc3ccc(O)cc31)C2C (relative stereo) [7D (dextro trans), trans 1,2,3,4,5,6-hexahydro-3-(3-methyl-2-butenyl)-6-ethyl-11-methyl-8-hydroxy-2,6-methano-3-benzazocine]
analgesic activity in D'Amour-Smith test ([6]; at 30 mg./kg.): inactive
toxicity in D'Amour-Smith test ([6]; at 60 mg./kg.): toxic
maximum degree of antagonism ([1]; at 1.25 mg./kg.): 30%

CC[C@]12CCN(CC=C(C)C)[C@@H](Cc3ccc(O)cc31)C2C (relative stereo) [7D (levo trans), trans 1,2,3,4,5,6-hexahydro-3-(3-methyl-2-butenyl)-6-ethyl-11-methyl-8-hydroxy-2,6-methano-3-benzazocine]
ED50 in D'Amour-Smith test for analgesia [6]: 0.94 mg/kg
maximum degree of antagonism ([1]; at 0.1 mg/kg.): 22%

CC[C@]12CCN(CC=C(C)C)[C@H](Cc3ccc(O)cc31)[C@H]2C (relative stereo) [7D (racemic trans), trans 1,2,3,4,5,6-hexahydro-3-(3-methyl-2-butenyl)-6-ethyl-11-methyl-8-hydroxy-2,6-methano-3-benzazocine]
ED50 ([6]; Rattus norvegicus): 1.4 mg/kg
maximum degree of antagonism ([1]; at 0.1 mg/kg.): 50%

Reference: patent US4105659A, “1,2,3,4,5,6-Hexahydro-2,6-methano-3-benzazocines” (Sterling Drug Inc., priority 1964, dated 1978)
